Test results reported in PubChem BioAssay (NCI).
“And” between values parts separate entries of the source, which are not always exact repeats. Equal values may be shown once.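 Values below derive from 48-hour exposures of cells grown in 96-well plates, with endpoints linearly interpolated between the two concentrations bracketing the appropriate inhibition level. The concentration for 50% growth inhibition is given as GI50. At the TGI there is no net growth.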

Legend:
Test in all cases: NCI tumour cell line growth inhibition, 48 h
[1] = system: MDA-MB-435
[2] = system: T-47D breast
[3] = system: SK-MEL-5 melanoma
[4] = system: COLO 205 colon
[5] = system: OVCAR-3 ovarian
[6] = system: DU-145 prostate
[7] = system: OVCAR-4 ovarian
[8] = system: MALME-3M melanoma
[9] = system: MDA-MB-231 breast
[10] = system: HCT-15 colon

Row | SMILES | GI50 [1] | TGI [1] | GI50 [2] | TGI [2] | GI50 [3] | TGI [3] | GI50 [4] | TGI [4] | GI50 [5] | TGI [5] | GI50 [6] | TGI [6] | GI50 [7] | TGI [7] | GI50 [8] | TGI [8] | GI50 [9] | TGI [9] | GI50 [10] | TGI [10]
1 | NCCCCn1c2c(c3ccccc3c1=O)C(=O)c1ccccc1-2 | 0.717 µM | 2.28 µM | 0.631 µM | 6.81 µM | 0.153 µM | 1.25 µM | 0.92 µM | 11 µM | 0.502 µM | 4.22 µM | 0.0131 µM | 0.498 µM | 0.542 µM | 5.08 µM | 0.311 µM | 1.12 µM | 0.23 µM | 0.848 µM | 0.0582 µM | 0.412 µM
2 | COc1ccc(C2CC(=O)c3c(OC)cc(OC)cc3O2)cc1 (stereo not drawn) | > 100 µM | > 100 µM | > 100 µM | > 100 µM | > 100 µM | > 100 µM | > 100 µM | > 100 µM | > 100 µM | > 100 µM | > 100 µM | > 100 µM | > 100 µM | > 100 µM | > 100 µM | > 100 µM | > 100 µM | > 100 µM | > 100 µM | > 100 µM
3 | COc1ccc(-n2cc(-c3cc(OC)c(OC)c(OC)c3)[nH]c2=S)cc1OC | > 100 µM | > 100 µM | > 100 µM | > 100 µM | > 100 µM | > 100 µM | > 100 µM | > 100 µM | > 100 µM | > 100 µM | > 100 µM | > 100 µM | > 100 µM | > 100 µM | > 100 µM | > 100 µM | > 100 µM | > 100 µM | > 100 µM | > 100 µM
4 | CN(C)C(=S)SN(C)C(=O)Nc1ccccc1 |  | > 72.5 µM |  | 99.1 µM |  | 46.4 µM |  | > 100 µM |  | 41.2 µM |  | > 100 µM |  | 53.5 µM |  | 50.3 µM |  | > 100 µM |  | > 85.3 µM
5 | O=C(C[C@@H](C(=O)NCc1cccc(C(F)(F)F)c1)N1C(=O)[C@@H](N2C(=O)OC[C@@H]2c2ccccc2)[C@H]1/C=C/c1ccccc1)NC1CCN(Cc2ccccc2)CC1 | 2.45 µM | 7.66 µM | 15.7 µM | 38.9 µM | 3.47 µM | 12.5 µM | 2.48 µM | 7.12 µM | 10.4 µM | 25.1 µM | 7.72 µM | > 100 µM | 1.77 µM | 4.43 µM | 2.78 µM | 7.39 µM | 4.02 µM | 20 µM | 10.9 µM | 35.2 µM
6 | CC(=O)[O][Hg][c]1c(C)c(C)c(C)c(C)c1C | 1.5 µM | 3.09 µM | 1.36 µM | 3.74 µM | 1.38 µM | 2.74 µM | 2.7 µM | 7.14 µM | 1.82 µM | 3.31 µM | 8.79 µM | 22.8 µM | 2.04 µM | 4.47 µM | 1.24 µM | 2.62 µM | 0.552 µM | 1.31 µM | 1.38 µM | 2.93 µM
7 | O=[N+]([O-])c1ccc2nnnn2c1 |  | 32.8 µM |  | > 100 µM |  | 41.4 µM |  | > 100 µM |  | 35.2 µM |  | > 100 µM |  | > 100 µM |  | 60.5 µM |  | 96.4 µM |  | 44.3 µM
8 | Cn1cc(-c2csc(-c3cccc(F)c3)n2)c2cccnc21 | 14.4 µM | 33.1 µM | 14.4 µM | 51.7 µM | 15.7 µM | 30.4 µM | 15.7 µM | 30.1 µM | 19 µM | 33.9 µM | 18.2 µM | 32.1 µM | 27.6 µM | 78.6 µM | 17.6 µM | 45.5 µM | 16.8 µM | 35.3 µM | 14 µM | 35.7 µM
9 | CC(C)CC(N)C(=O)O (stereo not drawn) |  | > 100 µM |  | > 100 µM |  | > 100 µM |  | > 100 µM |  | > 100 µM |  | > 100 µM |  | > 100 µM |  | > 100 µM |  | > 100 µM |  | > 100 µM
10 | Cc1cc(C)cc(Nc2cc(C)nc3nc(C(F)(F)F)nn23)c1 | > 100 µM | > 100 µM | > 100 µM | > 100 µM | > 100 µM | > 100 µM | > 100 µM | > 100 µM | > 100 µM | > 100 µM | > 100 µM | > 100 µM | > 100 µM | > 100 µM | > 100 µM | > 100 µM | > 100 µM | > 100 µM | > 100 µM | > 100 µM
11 | N#C/C(C(=S)Nc1ccccc1)=C1/NN=C2c3ccccc3C(=O)NN21 | 7.8 µM | 24.3 µM | 36.7 µM | > 100 µM | 17 µM | 41.1 µM | 24.9 µM | > 100 µM | 21.2 µM | 52.7 µM | 28.8 µM | > 100 µM | 26.2 µM | 91.2 µM | 13.9 µM | > 100 µM | 29.5 µM | > 100 µM | 27.6 µM | > 100 µM
12 | CCOC(=O)c1c(C)n(Cc2ccc(OC)cc2)c2c1cc(O)c1[nH]c3c(c12)CCCC3 | 15.9 µM | 82 µM | 2.02 µM | 38.8 µM | 1.74 µM | 3.24 µM | 0.0865 µM | 8.35 µM | 3.73 µM | 18.6 µM | 27.5 µM | > 100 µM | 15.6 µM | 88.6 µM | 2.85 µM | 18.4 µM | 0.617 µM | > 100 µM | 3.44 µM | 13.2 µM
13 | COc1cccc(NCc2nnc(Nc3ccc(Cl)cc3)c3ccccc23)c1 | 0.739 µM | 4.38 µM | 0.649 µM | 6.56 µM | 0.819 µM | 4.18 µM | 0.492 µM | 4.01 µM | 1.65 µM | 10 µM | 2.4 µM | 6.52 µM | 1.33 µM | 17.6 µM | 1.22 µM | 6.23 µM | 1.32 µM | 6.32 µM | 1.78 µM | 7.56 µM
14 | CCCCNC(=O)NS(=O)(=O)c1ccc(N2N=C(c3ccc(C)cc3C)CC2c2ccc(N(C)C)cc2)cc1 (stereo not drawn) | 2.55 µM | 7.59 µM | 5.16 µM | > 100 µM | 2.22 µM | 5.42 µM | 3.19 µM | 7.56 µM | 2.5 µM | 5.72 µM | 5.75 µM | 81.1 µM | 5.41 µM | > 100 µM | 3.08 µM | 41.7 µM | 5.36 µM | 35.6 µM | 3.09 µM | > 100 µM
15 | CC(C)(C)OC(=O)N(CCCN(CCn1c2c(c3ccccc3c1=O)C(=O)c1ccccc1-2)C(=O)OC(C)(C)C)CCn1c2c(c3ccccc3c1=O)C(=O)c1ccccc1-2 | > 50 µM | > 50 µM | > 50 µM | > 50 µM | > 50 µM | > 50 µM | > 50 µM | > 50 µM | 21.2 µM | > 50 µM | > 50 µM | > 50 µM | > 50 µM | > 50 µM | > 50 µM | > 50 µM | > 50 µM | > 50 µM | 31.1 µM | > 50 µM
16 | C[C@]12CC[C@@H]3c4ccc(O)cc4C[C@@H](CCCCCCCCCS(=O)CCCC(F)(F)C(F)(F)F)[C@H]3[C@@H]1CC[C@@H]2O (stereo partly drawn) | > 100 µM | > 100 µM | 0.71 µM | > 100 µM | > 100 µM | > 100 µM | > 100 µM | > 100 µM | > 100 µM | > 100 µM | > 100 µM | > 100 µM | > 100 µM | > 100 µM | > 100 µM | > 100 µM | > 100 µM | > 100 µM | > 100 µM | > 100 µM
17 | CC12CCCC(CC(=O)c3[nH]c4ccccc4c31)C2 (stereo not drawn) | 0.255 µM | 0.949 µM | 0.65 µM | > 100 µM | 0.669 µM | 15 µM | 1.29 µM | 5.3 µM | 0.384 µM | 2.61 µM | 2.04 µM | 24.3 µM | 9.74 µM | > 90.8 µM | 0.916 µM | 35.6 µM | 3.26 µM | 43.1 µM | 0.413 µM | 24.4 µM
18 | O=c1[nH]c(=O)n(C2CC(O)C(CS)O2)cc1F (stereo not drawn) |  | > 100 µM |  | > 100 µM |  | > 100 µM |  | > 100 µM |  | > 100 µM |  | > 100 µM |  | > 100 µM |  | > 100 µM |  | > 100 µM |  | > 100 µM
19 | CCCCCCCCCCC(O)C1CCC(C2CCC(C(O)CCCCC(O)CCCCCC(O)CC3=CC(C)OC3=O)O2)O1 (stereo not drawn) | 1.51 µM | 9.96 µM and > 25 µM | 7.17 µM | > 25 µM | 1.83 µM | 7.33 µM and > 25 µM | 3.09 µM | 9.15 µM and > 25 µM | 2.16 µM | 9.65 µM and > 25 µM | > 25 µM | > 25 µM |  | > 25 µM |  | > 25 µM | 4.82 µM | > 25 µM | 4.64 µM | > 25 µM
20 | COc1ccc(C(=O)/C=C/c2cccnc2Nc2cc(OC)c(OC)c(OC)c2)cc1 | 0.885 µM | 12.2 µM | 1.94 µM | 15.6 µM | 2.2 µM | 10.6 µM | 1.95 µM | 6.12 µM | 0.617 µM | 4.72 µM | 4.89 µM | 17.1 µM | 1.52 µM | 10.1 µM | 6.32 µM | 20.1 µM | 2.67 µM | 12.4 µM | 0.884 µM | 3.86 µM
